Results published in US20200054633A1 (priority 2017, published 2020).
Entries after “also recorded” stand apart in the source; their conditions may differ. Where two headings read alike, the source gives them in different places.

Details: for subjects with nausea / subjects with treatment-emergent diarrhea: Safety Set
Description: This study followed a randomized, double-blind, placebo-controlled, parallel-group, multicenter design.
Analysis set for safety: Safety Set included all subjects who received at least 1 dose of study drug.

O=C(O)[C@H]1C2CCC(CC2)[C@@H]1Nc1nc(-c2c[nH]c3ncc(F)cc23)ncc1F [Compound (1), Pimodivir]
TEAE: Hyperglycaemia (600 mg, OST placebo, N=74): 2 (2.7%) n (%)
TEAE: Hyperhidrosis (600 mg, OST placebo, N=74): 1 (1.4%) n (%)
TEAE: Hyperkalaemia (600 mg, OST placebo, N=74): 2 (2.7%) n (%)
TEAE: Hyperproteinaemia (600 mg, OST placebo, N=74): 0 n (%)
TEAE: Hypertension (600 mg, OST placebo, N=74): 0 n (%)
TEAE: Hyperuricaemia (600 mg, OST placebo, N=74): 0 n (%)
TEAE: Hypokalaemia (600 mg, OST placebo, N=74): 0 n (%)
TEAE: Hyponatraemia (600 mg, OST placebo, N=74): 0 n (%)
TEAE: Hypophosphataemia (600 mg, OST placebo, N=74): 0 n (%)
TEAE: Hypothermia (600 mg, OST placebo, N=74): 0 n (%)
TEAE: Increased appetite (600 mg, OST placebo, N=74): 1 (1.4%) n (%)
TEAE: Infections and infestations (600 mg, OST placebo, N=74): 1 (1.4%) n (%)
TEAE: Injury, poisoning and procedural complications (600 mg, OST placebo, N=74): 1 (1.4%) n (%)
TEAE: Insomnia (600 mg, OST placebo, N=74): 1 (1.4%) n (%)
TEAE: Investigations (600 mg, OST placebo, N=74): 10 (13.5%) n (%)
TEAE: Irritability (600 mg, OST placebo, N=74): 1 (1.4%) n (%)
TEAE: Labyrinthitis (600 mg, OST placebo, N=74): 0 n (%)
TEAE: Leukopenia (600 mg, OST placebo, N=74): 1 (1.4%) n (%)
TEAE: Lymph node pain (600 mg, OST placebo, N=74): 0 n (%)
TEAE: Lymphadenopathy (600 mg, OST placebo, N=74): 0 n (%)
TEAE: Lymphopenia (600 mg, OST placebo, N=74): 1 (1.4%) n (%)
TEAE: Metabolism and nutrition disorders (600 mg, OST placebo, N=74): 5 (6.8%) n (%)
TEAE: Micturition urgency (600 mg, OST placebo, N=74): 1 (1.4%) n (%)
TEAE: Middle ear effusion (600 mg, OST placebo, N=74): 0 n (%)
TEAE: Migraine (600 mg, OST placebo, N=74): 1 (1.4%) n (%)
TEAE: Muscle spasms (600 mg, OST placebo, N=74): 0 n (%)
TEAE: Musculoskeletal and connective tissue disorders (600 mg, OST placebo, N=74): 1 (1.4%) n (%)
TEAE: Musculoskeletal chest pain (600 mg, OST placebo, N=74): 0 n (%)
TEAE: Myalgia (600 mg, OST placebo, N=74): 0 n (%)
TEAE: Myocarditis (600 mg, OST placebo, N=74): 0 n (%)
TEAE: Nasal congestion (600 mg, OST placebo, N=74): 0 n (%)
TEAE: Nausea (600 mg, OST placebo, N=74): 3 (4.1%) n (%)
TEAE: Nephropathy (600 mg, OST placebo, N=74): 0 n (%)
TEAE: Nervous system disorders (600 mg, OST placebo, N=74): 4 (5.4%) n (%)
TEAE: Neutropenia (600 mg, OST placebo, N=74): 1 (1.4%) n (%)
TEAE: Neutrophil count decreased (600 mg, OST placebo, N=74): 4 (5.4%) n (%)
TEAE: Oedema peripheral (600 mg, OST placebo, N=74): 0 n (%)
TEAE: Oral herpes (600 mg, OST placebo, N=74): 1 (1.4%) n (%)
TEAE: Otitis media (600 mg, OST placebo, N=74): 0 n (%)
TEAE: Paraesthesia (600 mg, OST placebo, N=74): 0 n (%)
TEAE: Percussion test abnormal (600 mg, OST placebo, N=74): 0 n (%)
TEAE: Petechiae (600 mg, OST placebo, N=74): 0 n (%)
TEAE: Pharyngitis streptococcal (600 mg, OST placebo, N=74): 0 n (%)
TEAE: Pneumonia chlamydial (600 mg, OST placebo, N=74): 0 n (%)
TEAE: Protein urine (600 mg, OST placebo, N=74): 0 n (%)
TEAE: Protein urine present (600 mg, OST placebo, N=74): 0 n (%)
TEAE: Proteinuria (600 mg, OST placebo, N=74): 0 n (%)
TEAE: Pruritus (600 mg, OST placebo, N=74): 0 n (%)
TEAE: Psychiatric disorders (600 mg, OST placebo, N=74): 3 (4.1%) n (%)
TEAE: Rash (600 mg, OST placebo, N=74): 0 n (%)
TEAE: Red blood cells urine (600 mg, OST placebo, N=74): 0 n (%)
TEAE: Renal and urinary disorders (600 mg, OST placebo, N=74): 1 (1.4%) n (%)
TEAE: Renal failure (600 mg, OST placebo, N=74): 0 n (%)
TEAE: Renal failure chronic (600 mg, OST placebo, N=74): 0 n (%)
TEAE: Renal impairment (600 mg, OST placebo, N=74): 0 n (%)
TEAE: Respiratory, thoracic and mediastinal disorders (600 mg, OST placebo, N=74): 2 (2.7%) n (%)
TEAE: Rhonchi (600 mg, OST placebo, N=74): 0 n (%)
TEAE: Sensation of foreign body (600 mg, OST placebo, N=74): 0 n (%)
TEAE: Sinus bradycardia (600 mg, OST placebo, N=74): 0 n (%)
TEAE: Sinus congestion (600 mg, OST placebo, N=74): 0 n (%)
TEAE: Sinus tachycardia (600 mg, OST placebo, N=74): 0 n (%)
TEAE: Sinusitis (600 mg, OST placebo, N=74): 0 n (%)
TEAE: Skin and subcutaneous tissue disorders (600 mg, OST placebo, N=74): 2 (2.7%) n (%)
TEAE: Sleep disorder (600 mg, OST placebo, N=74): 1 (1.4%) n (%)
TEAE: Sleep terror (600 mg, OST placebo, N=74): 0 n (%)
TEAE: Syncope (600 mg, OST placebo, N=74): 0 n (%)
TEAE: Tachycardia (600 mg, OST placebo, N=74): 0 n (%)
TEAE: Thrombocytopenia (600 mg, OST placebo, N=74): 0 n (%)
TEAE: Tinnitus (600 mg, OST placebo, N=74): 0 n (%)
TEAE: Tongue discolouration (600 mg, OST placebo, N=74): 0 n (%)
TEAE: Tremor (600 mg, OST placebo, N=74): 0 n (%)
TEAE: Upper respiratory tract infection (600 mg, OST placebo, N=74): 0 n (%)
TEAE: Urinary tract infection (600 mg, OST placebo, N=74): 0 n (%)
TEAE: Urine ketone body present (600 mg, OST placebo, N=74): 0 n (%)
TEAE: Vascular disorders (600 mg, OST placebo, N=74): 0 n (%)
TEAE: Vertigo (600 mg, OST placebo, N=74): 0 n (%)
TEAE: Vomiting (600 mg, OST placebo, N=74): 3 (4.1%) n (%)
TEAE: Wheezing (600 mg, OST placebo, N=74): 1 (1.4%) n (%)
TEAE: White blood cell count decreased (600 mg, OST placebo, N=74): 1 (1.4%) n (%)
Worst grade 1 or 2 TEAE (600 mg, OST placebo, N=74): 34 (45.9%)
Worst grade 3 TEAE (600 mg, OST placebo, N=74): 5 (6.8%)
Worst grade 3 or 4 TEAE (600 mg, OST placebo, N=74): 5 (6.8%)
Worst grade 4 TEAE (600 mg, OST placebo, N=74): 0
subjects with nausea (Compound (1) 300 mg bid): 4.1%
subjects with treatment-emergent diarrhea (Compound (1) 300 mg bid): 6.8%
severe events considered possibly related to trial medication (Compound (1) 600 mg bid): blood creatine phosphokinase increased and diarrhea
subjects with nausea (Compound (1) 600 mg bid): 4.1%
subjects with treatment-emergent diarrhea (Compound (1) 600 mg bid): 27.0%
treatment-emergent serious adverse event (SAE) (Compound (1) 600 mg bid, one subject, doubtfully related according to the investigator): an SAE of moderate increased alanine aminotransferase; also recorded: a moderate treatment-emergent AE (TEAE) of increased alanine aminotransferase
overall safety and tolerability (clinical study, 300 or 600 mg bid): generally safe and well tolerated
